# Results taken from PubChem BioAssay (NCI).
#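 The concentration for 50% growth inhibition is given as GI50. The concentration for full growth arrest is given as TGI.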
# What was measured:
# Assay in all cases: NCI anticancer screen, dose series, 384-well format
# SN12C renal = system: SN12C renal
# SF-268 CNS = system: SF-268 CNS
# OVCAR-8 ovarian = system: OVCAR-8 ovarian
# NCI-H226 lung = system: NCI-H226 lung
# U251 glioblastoma = system: U251 glioblastoma
# OVCAR-3 ovarian = system: OVCAR-3 ovarian
# UACC-62 melanoma = system: UACC-62 melanoma
# UACC-257 melanoma = system: UACC-257 melanoma
# SK-OV-3 ovarian = system: SK-OV-3 ovarian
# NCI-H23 lung = system: NCI-H23 lung
# MCF7 breast = system: MCF7 breast
# A549 NSCLC = system: A549 NSCLC
# LOX IMVI melanoma = system: LOX IMVI melanoma
# HL-60(TB) leukemia = system: HL-60(TB) leukemia
# M14 melanoma = system: M14 melanoma
# PC-3 prostate = system: PC-3 prostate
# KM12 colon = system: KM12 colon
# HT29 colon = system: HT29 colon
# NCI-H322M lung = system: NCI-H322M lung
# K-562 leukemia = system: K-562 leukemia
# HOP-62 NSCLC = system: HOP-62 NSCLC
# NCI/ADR-RES ovarian = system: NCI/ADR-RES ovarian
# IGROV1 ovarian = system: IGROV1 ovarian
# HCT-116 colon = system: HCT-116 colon
# MOLT-4 leukemia = system: MOLT-4 leukemia
# ACHN renal = system: ACHN renal
# SR leukemia = system: SR leukemia
# MDA-MB-435 melanoma = system: MDA-MB-435 melanoma
# BT-549 breast = system: BT-549 breast
# HS 578T breast = system: HS 578T breast
# DU-145 prostate = system: DU-145 prostate
# RPMI-8226 leukemia = system: RPMI-8226 leukemia
# A498 renal = system: A498 renal
# OVCAR-4 ovarian = system: OVCAR-4 ovarian
# HCC-2998 colon = system: HCC-2998 colon
# SF-539 CNS = system: SF-539 CNS
# SW-620 colon = system: SW-620 colon
# CAKI-1 renal = system: CAKI-1 renal
# SNB-75 CNS = system: SNB-75 CNS
# MALME-3M melanoma = system: MALME-3M melanoma
# HOP-92 NSCLC = system: HOP-92 NSCLC
# SK-MEL-5 melanoma = system: SK-MEL-5 melanoma
# SF-295 CNS = system: SF-295 CNS
# MDA-MB-231 breast = system: MDA-MB-231 breast
# EKVX NSCLC = system: EKVX NSCLC
# NCI-H522 lung = system: NCI-H522 lung
# SK-MEL-28 melanoma = system: SK-MEL-28 melanoma
# NCI-H460 NSCLC = system: NCI-H460 NSCLC
# MDA-MB-468 breast = system: MDA-MB-468 breast
# TK-10 renal = system: TK-10 renal
# HCT-15 colon = system: HCT-15 colon
# SNB-19 CNS = system: SNB-19 CNS
# RXF 393 renal = system: RXF 393 renal
# 786-0 renal = system: 786-0 renal
# UO-31 renal = system: UO-31 renal
# T-47D breast = system: T-47D breast
# CCRF-CEM leukemia = system: CCRF-CEM leukemia
# COLO 205 colon = system: COLO 205 colon
smiles,measurement,setting,value
COc1cc2c(Nc3ccc(Cl)c(Cl)c3F)ncnc2cc1OCC1C[C@@H]2CN(C)C[C@@H]2C1 (stereo partly specified),GI50,SN12C renal,0.161 µM
same,TGI,SN12C renal,1.4 µM
same,GI50,SF-268 CNS,1.1 µM
same,TGI,SF-268 CNS,2.3 µM
same,GI50,OVCAR-8 ovarian,1.11 µM
same,TGI,OVCAR-8 ovarian,2.32 µM
same,GI50,NCI-H226 lung,1.26 µM
same,TGI,NCI-H226 lung,2.7 µM
same,GI50,U251 glioblastoma,1.6 µM
same,TGI,U251 glioblastoma,2.95 µM
same,GI50,OVCAR-3 ovarian,0.0938 µM
same,TGI,OVCAR-3 ovarian,1.52 µM
same,GI50,UACC-62 melanoma,1.12 µM
same,TGI,UACC-62 melanoma,2.33 µM
same,GI50,UACC-257 melanoma,0.208 µM
same,TGI,UACC-257 melanoma,0.409 µM
same,GI50,SK-OV-3 ovarian,0.189 µM
same,TGI,SK-OV-3 ovarian,1.43 µM
same,GI50,NCI-H23 lung,1.02 µM
same,TGI,NCI-H23 lung,2.23 µM
same,GI50,MCF7 breast,1.09 µM
same,TGI,MCF7 breast,2.3 µM
same,GI50,A549 NSCLC,0.974 µM
same,TGI,A549 NSCLC,2.16 µM
same,GI50,LOX IMVI melanoma,1.15 µM
same,TGI,LOX IMVI melanoma,2.38 µM
same,GI50,HL-60(TB) leukemia,1.67 µM
same,TGI,HL-60(TB) leukemia,3.03 µM
same,GI50,M14 melanoma,1.65 µM
same,TGI,M14 melanoma,3.02 µM
same,GI50,PC-3 prostate,1.12 µM
same,TGI,PC-3 prostate,2.5 µM
same,GI50,KM12 colon,1.63 µM
same,TGI,KM12 colon,3.01 µM
same,GI50,HT29 colon,0.598 µM
same,TGI,HT29 colon,1.92 µM
same,GI50,NCI-H322M lung,0.0317 µM
same,TGI,NCI-H322M lung,0.366 µM
same,GI50,K-562 leukemia,0.051 µM
same,TGI,K-562 leukemia,0.181 µM
same,GI50,HOP-62 NSCLC,1.31 µM
same,TGI,HOP-62 NSCLC,2.59 µM
same,GI50,NCI/ADR-RES ovarian,1.4 µM
same,TGI,NCI/ADR-RES ovarian,2.8 µM
same,GI50,IGROV1 ovarian,0.0332 µM
same,TGI,IGROV1 ovarian,0.199 µM
same,GI50,HCT-116 colon,1.39 µM
same,TGI,HCT-116 colon,2.72 µM
same,GI50,MOLT-4 leukemia,1.1 µM
same,TGI,MOLT-4 leukemia,2.3 µM
same,GI50,ACHN renal,0.0691 µM
same,TGI,ACHN renal,1.28 µM
same,GI50,SR leukemia,0.415 µM
same,TGI,SR leukemia,0.801 µM
same,GI50,MDA-MB-435 melanoma,1.69 µM
same,TGI,MDA-MB-435 melanoma,3.07 µM
same,GI50,BT-549 breast,1.3 µM
same,TGI,BT-549 breast,2.58 µM
same,GI50,HS 578T breast,1.08 µM
same,TGI,HS 578T breast,2.28 µM
same,GI50,DU-145 prostate,0.557 µM
same,TGI,DU-145 prostate,2.18 µM
same,GI50,RPMI-8226 leukemia,1.39 µM
same,TGI,RPMI-8226 leukemia,2.68 µM
same,GI50,A498 renal,0.94 µM
same,TGI,A498 renal,2.15 µM
same,GI50,OVCAR-4 ovarian,1.36 µM
same,TGI,OVCAR-4 ovarian,3.15 µM
same,GI50,HCC-2998 colon,1.48 µM
same,TGI,HCC-2998 colon,2.81 µM
same,GI50,SF-539 CNS,1.14 µM
same,TGI,SF-539 CNS,2.36 µM
same,GI50,SW-620 colon,1.56 µM
same,TGI,SW-620 colon,2.9 µM
same,GI50,CAKI-1 renal,0.123 µM
same,TGI,CAKI-1 renal,1.6 µM
same,GI50,SNB-75 CNS,1.31 µM
same,TGI,SNB-75 CNS,2.59 µM
same,GI50,MALME-3M melanoma,1.16 µM
same,TGI,MALME-3M melanoma,2.38 µM
same,GI50,HOP-92 NSCLC,1.15 µM
same,TGI,HOP-92 NSCLC,2.37 µM
same,GI50,SK-MEL-5 melanoma,1.22 µM
same,TGI,SK-MEL-5 melanoma,2.46 µM
same,GI50,SF-295 CNS,1.68 µM
same,TGI,SF-295 CNS,3.06 µM
same,GI50,MDA-MB-231 breast,1.18 µM
same,TGI,MDA-MB-231 breast,2.47 µM
same,GI50,EKVX NSCLC,0.0472 µM
same,TGI,EKVX NSCLC,1.13 µM
same,GI50,NCI-H522 lung,0.0801 µM
same,TGI,NCI-H522 lung,1.44 µM
same,GI50,SK-MEL-28 melanoma,1.45 µM
same,TGI,SK-MEL-28 melanoma,2.77 µM
same,GI50,NCI-H460 NSCLC,1.33 µM
same,TGI,NCI-H460 NSCLC,2.62 µM
same,GI50,MDA-MB-468 breast,0.0307 µM
same,TGI,MDA-MB-468 breast,0.162 µM
same,GI50,TK-10 renal,0.156 µM
same,TGI,TK-10 renal,1.23 µM
same,GI50,HCT-15 colon,0.89 µM
same,TGI,HCT-15 colon,2.13 µM
same,GI50,SNB-19 CNS,1.41 µM
same,TGI,SNB-19 CNS,2.74 µM
same,GI50,RXF 393 renal,0.512 µM
same,TGI,RXF 393 renal,1.86 µM
same,GI50,786-0 renal,0.71 µM
same,TGI,786-0 renal,2.03 µM
same,GI50,UO-31 renal,0.252 µM
same,TGI,UO-31 renal,1.65 µM
same,GI50,T-47D breast,1.02 µM
same,TGI,T-47D breast,2.23 µM
same,GI50,CCRF-CEM leukemia,1.52 µM
same,TGI,CCRF-CEM leukemia,2.85 µM
same,GI50,COLO 205 colon,1.81 µM
same,TGI,COLO 205 colon,3.28 µM
